The record followed here is US6984655B1, “Photodynamic therapy for selectively closing neovasa in eyeground tissue” (Meiji Seika Kaisha, Ltd., priority 2000, dated 2006).

In data set [1] the test system is vascular walls of retinal normal vascular vessels and choroidal neovascular vessels (CNV). The data set is described as follows: infrared fluorescence fundus angiography of ICG (790 nm excitation) in monkeys having experimental CNV. Format: in vivo, monkeys of the genus Macaca. The conditions noted are these: for infrared fluorescence in CNV / infrared fluorescence in retinal normal vascular vessels: ICG 0.5 mg/kg iv.
Source text: In these experiments, the time-dependent changes in the concentrations of ICG having distributed and remaining in the vascular walls of the retinal normal vascular vessels and in the vascular walls of the choroidal neovascular vessels (CNV) in the ocular fundus of the monkeys were examined by a process wherein a beam of laser light containing a light of 790 nm-wavelength (as emitted from a semiconductor type laser generator) was used as an excitation light, and wherein the changes in the intensity of the infrared fluorescence emitted from the ICG as excited within said vascular walls were continuously recorded by photographs by means of an infrared light fundus camera apparatus (of modified TCR 50-IA type, manufactured by Topcon Co., Japan) for the infrared fluorescence fundus angiography for diagnosing the ocular fundus, and wherein the photographed images of the fundus were observed visually.
In the same manner as in the above Test Example 1, the neovasculature lesions comprising the experimental choroidal neovascular vessels (CNV) were produced in the ocular fundi of monkeys of the genus Macaca, according to the modified Ryan's method.
An aqueous solution of ICG dissolved in distilled water for the injections at a concentration of 5.0 mg/ml of ICG was intravenously injected at a dose of ICG of 0.5 mg/kg at a vein in the lower limbs of the monkeys having the neovasculature lesions in the retina of the eye.
Immediately after the time of the intravenous injection of ICG, the ocular fundi of the monkeys were continuously observed under irradiation of the beam of laser light containing a light of 790 nm-wavelength by means of an infrared light camera apparatus (of a modified TCR 50-IA type, manufactured by Topcon Co.) for infrared fluorescence fundus the angiography for diagnosing the ocular fundus.
To these test monkeys was intravenously injected ICG at a dose of 1 mg/kg in the same way as in Test Example 3. Immediately after the time of the intravenous injection of ICG, the ocular fundi of the monkeys were continuously observed by means of an infrared light fundus camera apparatus (of modified TCR 50 type, manufactured by Topcon Co., Ltd.) for the infrared fluorescence fundus angiography for diagnosing the ocular fundus. The observation with the fundus camera was made under irradiation of the ocular fundi with the laser light containing a light of 790 nm-wavelength. There was recorded the time point at which the infrared fluorescence of ICG was eliminated entirely from the retinal normal vascular vessels.

Data set [2] has the same test system. The data set is described as follows: infrared fluorescence fundus angiography after co-injection of ICG and NPe6 (Test Example 5). The conditions noted are these: ICG 0.5 mg/kg co-injected with NPe6 0.5 mg/kg. The data set is classed as in vivo, monkeys of the genus Macaca.
Source text: The 664 nm-laser light as irradiated was irradiated at an irradiance of 0.68 W/cm^2 for 300 second so that the fluence was of 204 J/cm^2.
Data set [3] deals with experimental choroidal neovascular vessels (CNV). Put plainly: PDT with NPe6 timed by prior ICG angiography (Test Example 4).
Procedure: To these test monkeys was intravenously injected ICG at a dose of 1 mg/kg in the same way as in Test Example 3. Immediately after the time of the intravenous injection of ICG, the ocular fundi of the monkeys were continuously observed by means of an infrared light fundus camera apparatus (of modified TCR 50 type, manufactured by Topcon Co., Ltd.) for the infrared fluorescence fundus angiography for diagnosing the ocular fundus. The observation with the fundus camera was made under irradiation of the ocular fundi with the laser light containing a light of 790 nm-wavelength. There was recorded the time point at which the infrared fluorescence of ICG was eliminated entirely from the retinal normal vascular vessels. The time-gap which was extended between the aforesaid time point as recorded for the entire elimination of the infrared fluorescence of IGC and the time of the intravenous injection of ICG was calculated in a unit of “minutes” or “second”, whereby it was estimated that said time-gap was 30 minutes. • (b) Time was allowed to pass until the infrared fluorescence of ICG was eliminated entirely from the neovasculature lesions in the ocular fundi of the test monkeys. […] The 664 nm-laser light as irradiated was irradiated at an irradiance of 0.57 W/cm2 for 180 seconds so that the fluence was of 102.6 J/cm^2. […]
The next data set has as its system CD-1 (male) mice. The data set is described as follows: acute toxicity test (LD50). The data set is classed as in vivo.
For data set [4], the system named is vascular walls of retinal normal vascular vessels and choroidal neovascular vessels (CNV). Put plainly: fluorescence fundus angiography of NPe6 red fluorescence (488 nm excitation) in monkeys having experimental CNV. Format: in vivo, monkeys of the genus Macaca. The following applies: for time point at which red fluorescence was substantially entirely eliminated from retinal normal vascular vessels while CNV lesions continued to emit: Test Example 2. The source says: The detailed procedures of the above experiments are as follows. Thus, a beam of a laser light of 647 nm wavelenght as emitted from a krypton laser generator [Coherent Medical Laser generator, manufactured by Novua Omni Co.; having an output of 500 to 900 mW] was irradiated as a laser-irradiating spot of a diameter of 50 μm onto the ocular fundi of 8 mature monkeys of the genus Macaca (of body weights of 3.5 kg to 6.0 kg) for 0.1 seconds, according to a modification of the Ryan's method [Arch. Ophthalmol., vol 100; pp. 1804–1809 (1982)]. It is said that the resulting damage in the Bruch's membrane, which were incurred by the irradiation of the 647 nm laser light, is very effective for the incidence of ocular neovascular vessels. Thereby, there were induced the experimental choroidal neovascular vessels (abbreviated as CNV). The induced CNV are the neovascular vessels as branched from the choroidal normal vascular vessels in the ocular fundus. Such CNV have infiltrated in the subretinal space, namely the space between the sensory retina and choroids, to involve the occurrence of exudation, bleeding and retinal detachment. The formation of the neovasculature lesions comprising the CNV was confirmed by a process which comprised intravenously injecting fluorescein or indocyanine green to the so treated monkeys and subsequently carrying out the diagnosis method according to a fluorescence fundus angiography of the ocular fundus.
In the course of said irradiation of 488 nm laser light beam for 10 minutes, the images of the red fluorescence as emitted in the ocular fundus were recorded by photography on a video tape by means of a high-sensitivity television fundus camera apparatus. Thereafter, at intervals of 10 minutes, a beam of 488 nm laser light was repeatedly irradiated to the ocular fundus each for about one minute. At each of the irradiations of the 488 nm laser light beam, the images of the red fluorescence emitted from the vascular vessels of the ocular fundus were recorded on the video tape. […] The images of the fluorescence emitted from the ocular fundus vascular vessels were then reproduced from the recording video tape for the purpose of observation.
During this 10 minutes-irradiation of the 488 nm-laser light to the ocular fundi, the images of the red fluorescence emitted from the ocular fundi were recorded by photography on a video tape by means of a high-sensitivity television fundus camera.
During this irradiation of the 488 nm-laser light, the images of the red fluorescences emitted from the retinal normal vascular vessels and from the choroidal neovascular vessels were observed by an apparatus for the fluorescence ocular fundus angiography of the ocular fundus (namely, an infrared light fundus camera).

For data set [5], the system named is ocular fundus tissue with choroidal neovascular vessels (CNV). The data set is described as follows: fluorescence microscopy of cross-section samples of enucleated eyeballs. The data set is classed as in vivo, monkeys of the genus Macaca. The conditions noted are these: 20 mg/kg iv, eyeballs enucleated 65 to 70 minutes after injection, excitation 380 to 420 nm. The procedure:
These cut pieces of the eyeballs were frozen in a bath of liquid nitrogen. Cross-section samples each having a thickness of 5 μm were prepared from the ocular fundus tissue region of the frozen pieces of the eyeballs.

For data set [6], the system named is experimental choroidal neovascular vessels (CNV). The conditions noted are these: optical microscope, pathological examination.
Source text: In the experiments of this Test Example 2, there were used 31 neovasculature lesions chosen from among the neovasculature lesions which comprised the experimental choroidal neovascular vessels (CNV) as produced in the ocular fundi of the monkeys of the genus Macaca by the modified Ryan's method set out in the Test Example 1 above.
The 664 nm-laser light was irradiated for 300 seconds at a fluence of 204 J/cm^2.
The laser light was irradiated for 60 to 300 seconds at different fluences.
The 664 nm-laser light was irradiated at different fluences for 60 seconds or for 10 seconds. […]
After the treatment with the irradiation of 664 nm-laser light was terminated, the test monkeys having the neovasculature lesions, either treated or untreated, were fed for 1 week under routine feeding conditions. After the feeding for one week, the effects of the above treatments were judged by a fluorescence fundus angiography with fluorescein and by a fluorescence fundus angiography with indocyanine green (ICG). […] For the fluorescence fundus angiography with ICG, the ocular fundi of the monkeys were observed and diagnosed by means of SLO or by means of an infrared light fundus camera apparatus for the infrared ocular fundus angiography, after the intravenous injection of ICG. […]
[7] abbreviates: 20 minutes after administration.
The mark [8] stands for this setting: about 7 to 8 minutes after injection.
The mark [9] stands for this setting: 0.5 mg/kg iv, 20 minutes after injection.
Where [10] appears, read: 1.0 mg/kg iv, 30 minutes after injection.
Setting [11] is: 20 mg/kg iv, 7.5 minutes after injection.
Where [12] appears, read: 20 mg/kg iv, 20 minutes after injection.
[13] abbreviates: 20 mg/kg iv, 60 minutes after injection.

As to `CC1(C)C(/C=C/C=C/C=C/C=C2\N(CCCCS(=O)(=O)O)c3ccc4ccccc4c3C2(C)C)=[N+](CCCCS(=O)(=O)[O-])c2ccc3ccccc3c21` [ICG, indocyanine green], in data set [1] (setting [7]), the “infrared fluorescence in CNV” value is “increased to a prominent and appreciable intensity”; the “infrared fluorescence in retinal normal vascular vessels” value is “had decreased”. Besides, in data set [1] (setting [8]), the “infrared fluorescence in CNV” value is on record as “a slight but appreciable intensity”; the “infrared fluorescence in retinal normal vascular vessels” value was “observed at a prominent and appreciable intensity”. In data set [1] (ICG 1 mg/kg iv), the “time-gap between intravenous injection and entire elimination of infrared fluorescence from retinal normal vascular vessels” value was 30 min. Moreover, in data set [2] (20 minutes after injection), the “infrared fluorescence of ICG in retinal normal vascular vessels” value is given as “decreased to a poor intensity”; the “infrared fluorescence of ICG in vascular walls of CNV” value is “retained at a prominent and apreciable intensity”. The “infrared fluorescence of ICG in retinal normal vascular vessels” value in data set [2] (setting [8]) is “observed at a prominent and appreciable intensity”.

A word on the LD50: it is the dose expected to kill half of the subjects tested. A higher LD50 goes with lower toxicity. As for `C=Cc1c(C)c2cc3nc(c(CC(=O)N[C@@H](CC(=O)[O-])C(=O)[O-])c4[nH]c(cc5nc(cc1[nH]2)C(C)=C5CC)c(C)c4C(=O)[O-])[C@@H](CCC(=O)[O-])[C@@H]3C.[Na+].[Na+].[Na+].[Na+]` [NPe6, mono-L-aspartyl chlorin e6 tetra-sodium salt], the “number of treated neovasculature lesions whose CNV were successfully occluded” value in data set [3] (NPe6 1 mg/kg iv after ICG cleared, irradiation started 30 min, 0.57 W/cm2, 180 s, 102.6 J/cm^2, 3 lesions treated, judged after one week) was found to be 3. The “state of adjacent retinal normal vascular vessels, retinal parenchymal tissue and choroidal normal vascular vessels” value in data set [3] (NPe6 1 mg/kg iv, 664 nm-laser 102.6 J/cm^2, judged after one week) is given as “could remain intact”. The LD50 with CD-1 (male) mice is listed as 164 mg/kg. In addition, the “red fluorescence in CNV” value is “confirmably observed at a slight but appreciable intensity” in data set [4] (setting [9]); “confirmed at a significant and appreciable intensity” in data set [4] (setting [10]); “remain at a higher and prominently observable intensity” in data set [4] (setting [12]); “observed at a high and prominent intensity” in data set [4] (setting [13]). The “red fluorescence in retinal normal vascular vessels” value is “substantially entirely been eliminated and disappeared” in data set [4] (setting [9]); “substantially entirely been eliminated” in data set [4] (setting [10]); “decreased to a lower and hardly detectable intensity” in data set [4] (setting [12]); “never observable” in data set [4] (setting [13]). For the same molecule, the “time point at which red fluorescence was substantially entirely eliminated from retinal normal vascular vessels while CNV lesions continued to emit” value in data set [4] (0.5 mg/kg iv) turned out to be 20 min; in data set [4] (1 mg/kg iv), 30 min; in data set [4] (2 mg/kg iv), 60 min; in data set [4] (10 mg/kg iv), 60 min. The “red fluorescence in vascular walls of CNV” value in data set [4] (setting [11]) is given as “observable slightly but detectable at its weak intensity”. The “red fluorescence in vascular walls of retinal normal vascular vessels” value in data set [4] (setting [11]) is “appreciably observable at its prominent intensity”. Further, in data set [4] (monkeys with experimental CNV), the “time of peak NPe6 concentration in vascular walls of CNV after intravenous injection” value is recorded as “about 20 minutes”. In data set [4] (monkeys, intravenous), the “permeation into normal parenchymal tissue of the ocular retina” value is “never permeate”. For the same molecule, the “red fluorescence at CNV in cross-section samples” value in data set [5] was “observed confirmably at a significant intensity”. Further, the “red fluorescence at retinal normal vascular vessels in cross-section samples” value in data set [5] is “only a very slight degree of the red fluorescence”. Also, the “red fluorescence in cross-section samples of retinal parenchymal region” value in data set [5] is “almost not observable”. The “state of retinal and choroidal normal vascular vessels adjacent to the occluded CNV” value in data set [6] was “remaining intact or nearly intact”.
